Test results taken from ChEMBL document CHEMBL5625192, “Discovery of Ibrutinib-based BTK PROTACs with in vivo anti-inflammatory efficacy by inhibiting NF-κB activation” (Eur J Med Chem, 2023).
Each block holds one molecule with its values, some of them ahead of it. Calls of active or inactive are those of the source. No cut-off for these calls is given here.

Experiments:
Type in all cases: cell-based
[1] = molecular target: T1, Protein cereblon/Tyrosine-protein kinase BTK (Homo sapiens, UniProt Q06187+Q96SW2); test: PROTAC activity at CRBN/BTK in human Ramos cells assessed as induction of BTK degradation at 100 nM incubated for 24 hrs by Western blot analysis relative to control
Target sequence in this assay (Q06187 2-659 limits assumed): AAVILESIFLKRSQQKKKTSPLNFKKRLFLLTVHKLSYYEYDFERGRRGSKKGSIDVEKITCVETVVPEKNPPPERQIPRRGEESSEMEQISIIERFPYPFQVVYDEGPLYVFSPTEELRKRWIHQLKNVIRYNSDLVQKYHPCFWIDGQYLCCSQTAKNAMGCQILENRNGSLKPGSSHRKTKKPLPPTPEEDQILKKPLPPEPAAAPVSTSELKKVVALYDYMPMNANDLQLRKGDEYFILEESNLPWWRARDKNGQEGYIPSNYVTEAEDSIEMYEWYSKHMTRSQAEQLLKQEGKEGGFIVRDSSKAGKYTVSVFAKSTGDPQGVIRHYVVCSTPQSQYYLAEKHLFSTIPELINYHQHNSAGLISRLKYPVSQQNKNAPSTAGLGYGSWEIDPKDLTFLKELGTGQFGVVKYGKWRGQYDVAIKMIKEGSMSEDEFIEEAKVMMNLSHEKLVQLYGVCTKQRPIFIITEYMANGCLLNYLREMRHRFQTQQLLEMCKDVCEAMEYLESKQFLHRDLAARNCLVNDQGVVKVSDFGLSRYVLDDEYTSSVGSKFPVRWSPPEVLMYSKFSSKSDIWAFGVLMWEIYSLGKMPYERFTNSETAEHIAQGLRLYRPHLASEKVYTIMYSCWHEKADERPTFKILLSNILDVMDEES
Target sequence in this assay (Q96SW2 whole entry partner): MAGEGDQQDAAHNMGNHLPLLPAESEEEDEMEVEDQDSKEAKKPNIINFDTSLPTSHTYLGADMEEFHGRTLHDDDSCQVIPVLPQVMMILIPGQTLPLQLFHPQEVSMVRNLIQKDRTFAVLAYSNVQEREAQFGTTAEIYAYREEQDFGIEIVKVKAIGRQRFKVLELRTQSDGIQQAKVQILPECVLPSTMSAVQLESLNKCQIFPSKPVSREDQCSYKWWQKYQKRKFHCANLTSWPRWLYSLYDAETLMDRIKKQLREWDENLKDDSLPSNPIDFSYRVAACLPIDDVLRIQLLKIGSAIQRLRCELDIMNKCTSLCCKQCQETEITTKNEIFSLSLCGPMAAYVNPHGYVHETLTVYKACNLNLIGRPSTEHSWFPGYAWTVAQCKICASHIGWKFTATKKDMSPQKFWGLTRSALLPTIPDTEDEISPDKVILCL

[2] = molecular target: T1, Protein cereblon/Tyrosine-protein kinase BTK; test: PROTAC activity at CRBN/BTK in human MINO cells assessed as induction of BTK degradation incubated for 24 hrs by Western blot analysis
Target sequence in this assay (Q06187 whole entry): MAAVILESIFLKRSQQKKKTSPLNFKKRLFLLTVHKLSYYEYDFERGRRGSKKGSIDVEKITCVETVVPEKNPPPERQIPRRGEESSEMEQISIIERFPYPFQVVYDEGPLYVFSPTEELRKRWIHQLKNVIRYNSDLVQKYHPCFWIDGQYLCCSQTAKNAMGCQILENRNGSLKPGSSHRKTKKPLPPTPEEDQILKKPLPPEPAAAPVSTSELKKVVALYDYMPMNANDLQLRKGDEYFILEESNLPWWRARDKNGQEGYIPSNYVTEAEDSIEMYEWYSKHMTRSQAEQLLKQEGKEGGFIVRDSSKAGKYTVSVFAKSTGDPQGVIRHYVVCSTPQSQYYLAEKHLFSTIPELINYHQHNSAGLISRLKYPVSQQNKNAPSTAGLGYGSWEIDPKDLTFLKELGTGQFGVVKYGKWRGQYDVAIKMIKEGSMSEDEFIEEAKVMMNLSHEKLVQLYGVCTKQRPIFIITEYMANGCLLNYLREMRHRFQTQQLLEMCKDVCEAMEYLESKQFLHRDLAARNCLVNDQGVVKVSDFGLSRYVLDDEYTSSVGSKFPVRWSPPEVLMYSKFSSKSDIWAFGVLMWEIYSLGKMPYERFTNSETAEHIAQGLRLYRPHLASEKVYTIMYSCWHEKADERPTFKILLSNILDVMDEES
Target sequence in this assay (Q96SW2 whole entry): as the sequence (Q96SW2 whole entry partner) above

[3] = molecular target: T1, Protein cereblon/Tyrosine-protein kinase BTK; test: PROTAC activity at CRBN/BTK in human Ramos cells assessed as induction of BTK degradation incubated for 24 hrs by Western blot analysis
Target sequence in this assay (Q06187 whole entry): as the sequence (Q06187 whole entry) above
Target sequence in this assay (Q96SW2 whole entry): as the sequence (Q96SW2 whole entry partner) above

[4] = molecular target: T1, Protein cereblon/Tyrosine-protein kinase BTK; test: PROTAC activity at CRBN/BTK in human MINO cells assessed as induction of BTK degradation by measuring maximal efficacy incubated for 24 hrs by Western blot analysis relative to control
Target sequence in this assay (Q06187 2-659 limits assumed): as the sequence (Q06187 2-659 limits assumed) above
Target sequence in this assay (Q96SW2 whole entry partner): as the sequence (Q96SW2 whole entry partner) above

[5] = molecular target: T1, Protein cereblon/Tyrosine-protein kinase BTK; test: PROTAC activity at CRBN/BTK in human Ramos cells assessed as induction of BTK degradation by measuring maximal efficacy incubated for 24 hrs by Western blot analysis relative to control
Target sequence in this assay (Q06187 2-659 limits assumed): as the sequence (Q06187 2-659 limits assumed) above
Target sequence in this assay (Q96SW2 whole entry partner): as the sequence (Q96SW2 whole entry partner) above

[6] = molecular target: T1, Protein cereblon/Tyrosine-protein kinase BTK; test: PROTAC activity at CRBN/BTK in human Ramos cells assessed as hook effect at 1000 nM incubated for 24 hrs by Western blot analysis
Target sequence in this assay (Q06187 2-659 limits assumed): as the sequence (Q06187 2-659 limits assumed) above
Target sequence in this assay (Q96SW2 whole entry partner): as the sequence (Q96SW2 whole entry partner) above

[7] = molecular target: T1, Protein cereblon/Tyrosine-protein kinase BTK; test: PROTAC activity at CRBN/BTK in human MINO cells assessed as hook effect at >10000 nM incubated for 24 hrs by Western blot analysis
Target sequence in this assay (Q06187 2-659 limits assumed): as the sequence (Q06187 2-659 limits assumed) above
Target sequence in this assay (Q96SW2 whole entry partner): as the sequence (Q96SW2 whole entry partner) above

[8] = molecular target: T1, Protein cereblon/Tyrosine-protein kinase BTK; test: PROTAC activity at CRBN/BTK in human Ramos cells assessed as hook effect at 10000 nM incubated for 24 hrs by Western blot analysis
Target sequence in this assay (Q06187 2-659 limits assumed): as the sequence (Q06187 2-659 limits assumed) above
Target sequence in this assay (Q96SW2 whole entry partner): as the sequence (Q96SW2 whole entry partner) above

[9] = molecular target: T1, Protein cereblon/Tyrosine-protein kinase BTK; test: PROTAC activity at CRBN/BTK in human Ramos cells assessed as induction of BTK degradation at 100 nM incubated for 24 hrs by Western blot analysis
[10] = molecular target: T1, Protein cereblon/Tyrosine-protein kinase BTK; test: PROTAC activity at CRBN/BTK in human Ramos cells assessed as induction of BTK degradation at 100 nM pretreated with MG132 for 2 hrs followed by compound treatment and measured after 8 hrs by Western blot analysis
[11] = molecular target: T1, Protein cereblon/Tyrosine-protein kinase BTK; test: PROTAC activity at CRBN/BTK in human Ramos cells assessed as induction of BTK degradation at 100 nM measured after 8 hrs by Western blot analysis relative to control
[12] = molecular target: T1, Protein cereblon/Tyrosine-protein kinase BTK; test: PROTAC activity at CRBN/BTK in human Ramos cells assessed as induction of BTK degradation at 100 nM measured within 4 hrs by Western blot analysis
[13] = molecular target: T1, Protein cereblon/Tyrosine-protein kinase BTK; test: PROTAC activity at CRBN/BTK in human Ramos cells assessed as induction of BTK degradation at 100 nM pretreated with bafilomycin for 2 hrs followed by compound treatment and measured after 8 hrs by Western blot analysis
[14] = molecular target: T1, Protein cereblon/Tyrosine-protein kinase BTK; test: PROTAC activity at CRBN/BTK in human MINO cells assessed as hook effect upto 10000 nM incubated for 24 hrs by Western blot analysis
[15] = molecular target: T1, Protein cereblon/Tyrosine-protein kinase BTK; test: PROTAC activity at CRBN/BTK in human Ramos cells assessed as induction of BTK degradation at 100 nM pretreated with ibrutinib for 2 hrs followed by compound treatment and measured after 8 hrs by Western blot analysis
[16] = molecular target: T1, Protein cereblon/Tyrosine-protein kinase BTK; test: PROTAC activity at CRBN/BTK in human Ramos cells assessed as induction of BTK degradation at 100 nM pretreated with pomalidomide for 2 hrs followed by compound treatment and measured after 8 hrs by Western blot analysis

EC50 [2]: 9.06 nM
EC50 [3]: 7.27 nM
Emax [4]: 99.7%
Emax [5]: 97.6%
Activity [6]: Active
Activity [7]: Active
Activity [1]: 67.5%
SMILES: Nc1ncnc2c1c(-c1ccc(Oc3ccccc3)cc1)nn2C1CCN(C(=O)CN2CCN(CC3CN(c4cccc5c4C(=O)N(C4CCC(=O)NC4=O)C5=O)C3)CC2)CC1 (centres undefined)

Activity [1]: 57.8%
SMILES: Nc1ncnc2c1c(-c1ccc(Oc3ccccc3)cc1)nn2C1CCN(C(=O)CN2CCC(N3CCN(CC#Cc4ccc5c(c4)C(=O)N(C4CCC(=O)NC4=O)C5=O)CC3)CC2)CC1 (centres undefined)

Activity [1]: 61.5%
SMILES: Nc1ncnc2c1c(-c1ccc(Oc3ccccc3)cc1)nn2C1CCN(C(=O)CN2CCN(C(=O)CCC(=O)Nc3ccc4c(c3)C(=O)N(C3CCC(=O)NC3=O)C4=O)CC2)CC1 (centres undefined)

Activity [1]: 33.6%
SMILES: Nc1ncnc2c1c(-c1ccc(Oc3ccccc3)cc1)nn2C1CCN(C(=O)CN2CCC(CN3CCN(CC#Cc4ccc5c(c4)C(=O)N(C4CCC(=O)NC4=O)C5=O)CC3)CC2)CC1 (centres undefined)

Activity [1]: 31.5%
SMILES: Nc1ncnc2c1c(-c1ccc(Oc3ccccc3)cc1)nn2C1CCN(CC2CN(CC3CN(c4ccc5c(c4)C(=O)N(C4CCC(=O)NC4=O)C5=O)C3)C2)CC1 (centres undefined)

EC50 [2]: 10.3 nM
EC50 [3]: 9.37 nM
Activity [8]: Active
Emax [4]: 99.5%
Emax [5]: 99.4%
Activity [6]: Active
Activity [7]: Active
Activity [1]: 91%
SMILES: Nc1ncnc2c1c(-c1ccc(Oc3ccccc3)cc1)nn2C1CCN(C(=O)CN2CCN(CC3CCN(c4cccc5c4C(=O)N(C4CCC(=O)NC4=O)C5=O)CC3)CC2)CC1 (centres undefined)

Activity [1]: 28.5%
SMILES: Nc1ncnc2c1c(-c1ccc(Oc3ccccc3)cc1)nn2C1CCN(C(=O)CN2CCN(CCOCC(=O)Nc3ccc4c(c3)C(=O)N(C3CCC(=O)NC3=O)C4=O)CC2)CC1 (centres undefined)

Activity [1]: 39.5%
SMILES: Nc1ncnc2c1c(-c1ccc(Oc3ccccc3)cc1)nn2C1CCN(C(=O)CN2CCN(CC#Cc3ccc4c(c3)C(=O)N(C3CCC(=O)NC3=O)C4=O)CC2)CC1 (centres undefined)

EC50 [2]: 2.93 nM
EC50 [3]: 6.11 nM
Activity [8]: inactive
Activity [10]: inactive
Activity [11]: 100%
Activity [12]: Active
Activity [13]: Active
Emax [4]: 99.7%
Activity [14]: inactive
Emax [5]: 99.7%
Activity [15]: inactive
Activity [16]: inactive
Activity [1]: 99.7%
SMILES: Nc1ncnc2c1c(-c1ccc(Oc3ccccc3)cc1)nn2C1CCN(C(=O)CN2CCN(CC3CCN(c4ccc5c(c4)C(=O)N(C4CCC(=O)NC4=O)C5=O)CC3)CC2)CC1 (centres undefined)

Activity [9]: inactive
SMILES: Nc1ncnc2c1c(-c1ccc(Oc3ccccc3)cc1)nn2C1CCN(CC2CCN(c3cccc4c3C(=O)N(C3CCC(=O)NC3=O)C4=O)CC2)CC1 (centres undefined)

Further lines, the molecule ahead of its results:

SMILES: Nc1ncnc2c1c(-c1ccc(Oc3ccccc3)cc1)nn2C1CCN(C(=O)CCCN2CCN(CCOCC(=O)Nc3ccc4c(c3)C(=O)N(C3CCC(=O)NC3=O)C4=O)CC2)CC1 (centres undefined)
Activity [1]: 40%

SMILES: Nc1ncnc2c1c(-c1ccc(Oc3ccccc3)cc1)nn2C1CCN(C(=O)CCCN2CCN(C(=O)CCC(=O)Nc3ccc4c(c3)C(=O)N(C3CCC(=O)NC3=O)C4=O)CC2)CC1 (centres undefined)
Activity [1]: 41.8%

SMILES: Nc1ncnc2c1c(-c1ccc(Oc3ccccc3)cc1)nn2C1CCN(C(=O)CN2CCN(CCOCCOCC(=O)Nc3ccc4c(c3)C(=O)N(C3CCC(=O)NC3=O)C4=O)CC2)CC1 (centres undefined)
Activity [1]: 38.9%

SMILES: Nc1ncnc2c1c(-c1ccc(Oc3ccccc3)cc1)nn2C1CCN(CC2CN(CC3CN(c4cccc5c4C(=O)N(C4CCC(=O)NC4=O)C5=O)C3)C2)CC1 (centres undefined)
Activity [1]: 31.3%

SMILES: Nc1ncnc2c1c(-c1ccc(Oc3ccccc3)cc1)nn2C1CCN(CC2CN(c3cccc4c3C(=O)N(C3CCC(=O)NC3=O)C4=O)C2)CC1 (centres undefined)
Activity [9]: inactive

SMILES: Nc1ncnc2c1c(-c1ccc(Oc3ccccc3)cc1)nn2C1CCN(CCOCCOCC(=O)Nc2ccc3c(c2)C(=O)N(C2CCC(=O)NC2=O)C3=O)CC1 (centres undefined)
EC50 [3]: 63.3 nM
Emax [5]: 92.4%
Activity [1]: 75.7%

SMILES: Nc1ncnc2c1c(-c1ccc(Oc3ccccc3)cc1)nn2C1CCN(Cc2ccc(C#CC3CCN(c4cccc5c4C(=O)N(C4CCC(=O)NC4=O)C5=O)CC3)nc2)CC1 (centres undefined)
EC50 [3]: 46.1 nM
Activity [8]: Active
Emax [5]: 95%
Activity [1]: 58.6%

SMILES: Nc1ncnc2c1c(-c1ccc(Oc3ccccc3)cc1)nn2C1CCN(CC2CN(CC3CCN(c4cccc5c4C(=O)N(C4CCC(=O)NC4=O)C5=O)CC3)C2)CC1 (centres undefined)
Activity [1]: 36.2%

SMILES: Nc1ncnc2c1c(-c1ccc(Oc3ccccc3)cc1)nn2C1CCN(Cc2ccc(C#CC3CCN(c4ccc5c(c4)C(=O)N(C4CCC(=O)NC4=O)C5=O)CC3)nc2)CC1 (centres undefined)
EC50 [3]: 51.1 nM
Activity [8]: Active
Emax [5]: 97.8%
Activity [1]: 62.7%

SMILES: Nc1ncnc2c1c(-c1ccc(Oc3ccccc3)cc1)nn2C1CCN(C(=O)CCCN2CCN(CCOCCOCC(=O)Nc3ccc4c(c3)C(=O)N(C3CCC(=O)NC3=O)C4=O)CC2)CC1 (centres undefined)
Activity [1]: 55%

SMILES: Nc1ncnc2c1c(-c1ccc(Oc3ccccc3)cc1)nn2C1CCN(C(=O)c2ccc(N3CCN(CC#Cc4ccc5c(c4)C(=O)N(C4CCC(=O)NC4=O)C5=O)CC3)nc2)CC1 (centres undefined)
Activity [1]: 47.4%

SMILES: Nc1ncnc2c1c(-c1ccc(Oc3ccccc3)cc1)nn2C1CCN(C(=O)c2ccc(N3CCN(c4ccc5c(c4)C(=O)N(C4CCC(=O)NC4=O)C5=O)CC3)nc2)CC1 (centres undefined)
EC50 [3]: 26.9 nM
Activity [8]: Active
Emax [5]: 97.8%
Activity [1]: 71.7%

SMILES: Nc1ncnc2c1c(-c1ccc(Oc3ccccc3)cc1)nn2C1CCN(C(=O)CN2CCN(C(=O)CCCC(=O)Nc3ccc4c(c3)C(=O)N(C3CCC(=O)NC3=O)C4=O)CC2)CC1 (centres undefined)
Activity [1]: 61.9%
